According to the supplement of paper PMC7600603:

How the values were obtained:
[1] = tested on: DLD1 NRF2-WT; details: 72 h; CellTiter-Glo viability
How it was run: (§1)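 DLD1 colorectal cancer cells, an isogenic pair either NRF2 wild-type or carrying a CRISPR gain-of-function, were cultured in DMEM with 10% FBS and treated in 384-well plates with library compounds at 5 concentrations across a 10,000-fold range. CellTiter-Glo viability was read on a Pherastar FS reader after 72 h and normalised to vehicle wells and 100-μM positive-control wells. Four-parameter logistic dose-response fits were applied. EC50 and drug sensitivity score, a normalised area under the curve, were taken from these fits.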

[2] = tested on: DLD1 NRF2-GOF; details: 72 h; CellTiter-Glo viability
How it was run: as §1

[3] = tested on: DLD1 NRF2-WT; experiment: drug sensitivity score (DSS) viability (DSS score); higher = more sensitive; extreme values may be limits of the assay; details: 72 h; CellTiter-Glo viability
How it was run: as §1

[4] = tested on: DLD1 NRF2-GOF; experiment: as above; details: 72 h; CellTiter-Glo viability
How it was run: as §1

[5] = tested on: DLD1 NRF2-WT; experiment: TC50 cytotoxicity; higher = less toxic; details: 72 h; CellTox Green cytotoxicity
How it was run: (§2)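 Isogenic DLD1 colorectal cancer cells, either NRF2 wild-type or CRISPR gain-of-function, were grown in DMEM with 10% FBS. They were exposed in 384-well plates to library compounds at 5 concentrations spanning a 10,000-fold range. After 72 h, cytotoxicity was read by CellTox Green on a Pherastar FS reader and normalised to vehicle wells and 100-μM positive-control wells. TC50 and drug sensitivity score (a normalised area under the curve) came from logistic dose-response fits.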

[6] = tested on: DLD1 NRF2-GOF; experiment: TC50 cytotoxicity; higher = less toxic; details: 72 h; CellTox Green cytotoxicity
How it was run: as §2

[7] = tested on: DLD1 NRF2-WT; experiment: drug sensitivity score (DSS) cytotoxicity (DSS score); higher = more toxic; extreme values may be limits of the assay; details: 72 h; CellTox Green cytotoxicity
How it was run: as §2

[8] = tested on: DLD1 NRF2-GOF; experiment: as above; details: 72 h; CellTox Green cytotoxicity
How it was run: as §2

SMILES	EC50 viability [1] [nM]	EC50 viability [2] [nM]	drug sensitivity score [3]	drug sensitivity score [4]	TC50 cytotoxicity [5] [nM]	TC50 cytotoxicity [6] [nM]	drug sensitivity score [7]	drug sensitivity score [8]
CO[C@H]1CC[C@H](N2C(=O)CNc3ncc(-c4ccc(C(C)(C)O)nc4)nc32)CC1 [CC-223]	2250	1710	4.6	5.3	> 10000	> 10000	0	0.1
COc1cc(C)[nH]c(=O)c1CNC(=O)c1c(C)n([C@H](C)C2CCOCC2)c2ccccc12 [CPI-360]	> 10000	198	0	7.4	> 10000	> 10000	0	0
COc1cc2nccc(Oc3ccc(NC(=O)C4(C(=O)Nc5ccc(F)cc5)CC4)cc3)c2cc1OC [Cabozantinib]	> 1000	> 1000	0	1.1	> 1000	> 1000	0	0
C=CC(=O)Nc1cc2c(Nc3ccc(F)c(Cl)c3)ncnc2cc1OCCCN1CCOCC1 [Canertinib]	1970	2520	8.1	6.8	2390	3210	7.1	5.5
CNC(=O)c1ccc(-c2cnc3ncc(Cc4ccc5ncccc5c4)n3n2)cc1F [Capmatinib]	> 1000	> 1000	0	0	> 1000	> 1000	0	0
CC(C)C[C@H](NC(=O)[C@H](CCc1ccccc1)NC(=O)CN1CCOCC1)C(=O)N[C@@H](Cc1ccccc1)C(=O)N[C@@H](CC(C)C)C(=O)[C@@]1(C)CO1 [Carfilzomib]	6.5	7.5	26.6	25.8	6.1	14.3	26.9	22.3
COc1cc2c(Oc3ccc4[nH]c(C)cc4c3F)ncnc2cc1OCCCN1CCCC1 [Cediranib]	44.2	12.1	7	10.2	> 1000	> 1000	0	0
CCS(=O)(=O)N1CCN(c2ccc(Nc3ncc(C(N)=O)c(NC4CC4)n3)cc2)CC1 [Cerdulatinib]	322	64.9	4.3	13.8	> 10000	> 10000	0	0
Cc1cc(Nc2ncc(Cl)c(Nc3ccccc3S(=O)(=O)C(C)C)n2)c(OC(C)C)cc1C1CCNCC1 [Ceritinib]	546	728	5.2	4.2	> 2500	> 2500	0	0
CCN(CC)CCCC(C)Nc1ccnc2cc(Cl)ccc12 (configuration not stated) [Chloroquine]	6410	9780	13.8	11.8	26100	25800	6	5
CC(C)[C@H]1C(=O)N[C@@H](CCCNC(=N)N)C(=O)NCC(=O)N[C@@H](CC(=O)O)C(=O)N[C@H](Cc2ccccc2)C(=O)N1C [Cilengitide]	> 10000	315	0	3.9	> 10000	> 10000	0	0
Nc1nc(Cl)nc2c1ncn2[C@H]1C[C@H](O)[C@@H](CO)O1 [Cladribine]	25.6	145	10.4	5.5	> 1000	> 1000	0	0
Nc1nc(Cl)nc2c1ncn2[C@@H]1O[C@H](CO)[C@@H](O)[C@@H]1F [Clofarabine]	166	171	11.8	13.2	> 10000	> 10000	0	0
COc1c(OCCCN2CCOCC2)ccc2c1N=C(NC(=O)c1cnc(N)nc1)N1CCN=C21 [Copanlisib]	66.4	199	8.1	2.9	> 1000	> 1000	0.8	0
CC1(COc2ccc3c(c2)ncn3-c2ccc3cccc(N4CCC(N)CC4)c3n2)COC1 [Crenolanib]	1030	1460	10.9	9.3	2650	2890	4.3	6.1
Nc1ccn([C@@H]2O[C@H](CO)[C@@H](O)[C@@H]2O)c(=O)n1 [Cytarabine]	650	477	5	6.5	> 10000	> 10000	0	0
CC(C)(C)c1nc(-c2cccc(NS(=O)(=O)c3c(F)cccc3F)c2F)c(-c2ccnc(N)n2)s1 [Dabrafenib]	993	> 2500	1.4	0.6	> 2500	> 2500	0	0
COc1cc2ncnc(Nc3ccc(F)c(Cl)c3)c2cc1NC(=O)/C=C/CN1CCCCC1 [Dacomitinib]	96.4	247	5.9	2.4	> 1000	> 1000	0	0
Cn1c(=O)n(-c2ccc(C(C)(C)C#N)cc2)c2c3cc(-c4cnc5ccccc5c4)ccc3ncc21 [Dactolisib]	13.2	26.1	13.9	9.8	> 1000	> 1000	0	0
